The values that follow come from ChEMBL document CHEMBL4400510, “Synthesis and antitubercular evaluation of reduced lipophilic imidazo[1,2-a]pyridine-3-carboxamide derivatives” (Eur J Med Chem, 2019).

Structures are written as SMILES. Converted amounts (≈) assume the structure as drawn. Where only a bound is given, the exact number is not on record here.

One may read the MIC90 as an inhibitory concentration at the 90% level, which refers to growth in some studies and to a panel of isolates in others. As a reminder, the CC50 is the concentration that lowers cell viability or growth by half. By solubility is commonly meant how much of the substance goes into solution per volume. As a reminder, the AUC(0-inf) is total exposure, with the tail of the curve extrapolated. For orientation: Cmax means the peak of the concentration-time curve. The term Tmax denotes the time at which the peak concentration occurs. As a reminder, the half-life is the time in which the quantity being followed falls by half.

Series [1] deals with Mycobacterium tuberculosis. The experiment in a line: Antitubercular activity against Mycobacterium tuberculosis H37Rv after 7 days by MABA method. The format is functional. Conditions: 168 h. A general note: Resazurin is reduced to fluorescent resorufin, in cell work by metabolically active cells.
Series [2] is described as follows: Cytotoxicity against African green monkey Vero cells measured after 72 hrs by MTT assay. In kind it is cell-based. Conditions: chlorocebus sabaeus. On the technique in general: Formazan colour is commonly taken as a measure of viable cells.
The nature of series [3]: Aqueous solubility of the compound in 0.01 M HCl at pH 2 after 12 hrs by UV-based HPLC analysis. In kind it is physicochemical.
Series [4] in a line: AUC (0 to infinity) in ICR mouse at 25 mg/kg, po by HPLC analysis. Conditions: in vivo. Also on record: dose 25 mg/kg, route oral, time infinity. The format is ADME, organism-based.
Series [5] can be described thus: Cmax in ICR mouse at 25 mg/kg, po by HPLC analysis. Also on record: dose 25 mg/kg, route oral. The format is ADME, organism-based. Conditions: in vivo.
Series [6] in a line: Tmax in ICR mouse at 25 mg/kg, po by HPLC analysis. The format is ADME, organism-based. Conditions: in vivo.
The nature of series [7]: Half life in ICR mouse at 25 mg/kg, po by HPLC analysis. In kind it is ADME, organism-based. The settings on record: in vivo.

Compound `CCc1nc2ccc(Cl)cn2c1C(=O)NCc1ccc(N2CCN(Cc3ccc(OC(F)(F)F)cc3)CC2)cc1` came in with an MIC90 in series [1] below 0.035 µM.

`CCc1nc2ccc(Cl)cn2c1C(=O)NCc1ccc(N2CC3CN(CC4CCCCC4)CC3C2)cc1` (configuration not stated): in series [1], the MIC90 was below 0.035 µM. Also, the CC50 at 72 h in series [2] is above 100 µM. In series [3], the concentration in solution (solubility at 12 h) was 628 µg/mL (≈ 1210 µM). This compound also registered an AUC(0-inf) in series [4] of 9050 ng·h/mL. Also, in series [5], the highest level (Cmax) was 4180 ng/mL. Further, the Tmax in series [6] amounted to 0.25 h. In addition, in series [7], the half-life was 4.27 h.

In turn, `CCc1nc2ccc(Cl)cn2c1C(=O)NCc1ccc(N2CC3CN(c4ccc(OC(F)(F)F)cc4)CC3C2)cc1` (configuration not stated) registered an MIC90 in series [1] of 0.058 µM (≈ 0.0339 µg/mL).

In series [1], `CCc1nc2ccc(Cl)cn2c1C(=O)NCc1ccc(N2CC3CN(Cc4ccc(OC(F)(F)F)cc4)CC3C2)cc1` (configuration not stated) came in with an MIC90 below 0.035 µM. The compound also showed a CC50 at 72 h in series [2] of 20.5 µM. This compound displayed a solubility at 12 h in series [3] of 1130 µg/mL (≈ 1880 µM). In addition, in series [4], the AUC(0-inf) stood at 19800 ng·h/mL. The compound also returned a Cmax in series [5] of 2670 ng/mL. In series [6], the Tmax was determined as 0.83 h. The compound further had a half-life in series [7] of 5.23 h.

As for `CCc1nc2ccc(Cl)cn2c1C(=O)NCc1ccc(N2CCC3(CC2)CCN(c2ccc(OC(F)(F)F)cc2)CC3)cc1`, the MIC90 in series [1] was below 0.035 µM. Besides, the 50% cytotoxic concentration (CC50) at 72 h in series [2] turned out to be 70.2 µM. This compound also returned a solubility at 12 h in series [3] of 1110 µg/mL (≈ 1770 µM). The compound further returned an AUC(0-inf) in series [4] of 153000 ng·h/mL. For the same compound, the Cmax in series [5] is 7420 ng/mL. The Tmax in series [6] came to 2.67 h. Moreover, the half-life in series [7] is 12.3 h.

`CCc1nc2ccc(Cl)cn2c1C(=O)NCc1ccc(N2CC3CCC2CN3CC2CCCCC2)cc1` (configuration not stated): the MIC90 in series [1] came to 0.062 µM (≈ 0.0322 µg/mL).

The compound `CCc1nc2ccc(Cl)cn2c1C(=O)NCc1ccc(N2CCN(CCC3CCCCC3)CC2)cc1` yielded an MIC90 in series [1] of 0.103 µM (≈ 0.0523 µg/mL).

In series [1], `CCc1nc2ccc(Cl)cn2c1C(=O)NCc1ccc(N2CCN(CC3CCCCC3)CC2)cc1` yielded an MIC90 below 0.035 µM. Moreover, half-maximal cytotoxicity in series [2] (CC50 at 72 h) was put at 53.5 µM. For the same compound, in series [3], the solubility at 12 h was 1230 µg/mL (≈ 2500 µM). In series [4], the AUC(0-inf) was found to be 53800 ng·h/mL. The same compound displayed a Cmax in series [5] of 24100 ng/mL. The Tmax in series [6] came out at 0.25 h. The compound further gave a half-life in series [7] of 2.75 h.

For the compound `CCc1nc2cc(Cl)ccn2c1C(=O)NCc1ccc(N2CC3CC2CN3CC2CCCCC2)cc1` (configuration not stated), in series [1], the MIC90 was 1.27 µM (≈ 0.641 µg/mL).

In the case of `CCc1nc2cc(Cl)ccn2c1C(=O)NCc1ccc(N2CC3CCC2CN3CC2CCCCC2)cc1` (configuration not stated), the MIC90 in series [1] was determined as 1.48 µM (≈ 0.769 µg/mL).

Compound `CCc1nc2cc(Cl)ccn2c1C(=O)NCc1ccc(N2CCN(CCC3CCCCC3)CC2)cc1` came in with an MIC90 in series [1] of 1.59 µM (≈ 0.81 µg/mL).

Take `CCc1nc2cc(Cl)ccn2c1C(=O)NCc1ccc(N2CCN(CC3CCCCC3)CC2)cc1`: the MIC90 in series [1] stood at 0.84 µM (≈ 0.415 µg/mL).

As to `CCc1nc2ccc(Cl)cn2c1C(=O)NCc1ccc(N2CC3CC2CN3CC2CCCCC2)cc1` (configuration not stated), the MIC90 in series [1] came to 0.452 µM (≈ 0.229 µg/mL).

In the case of `NNC(=O)c1ccncc1` [ISONIAZID], in series [1], the MIC90 amounted to 0.277 µM (≈ 0.038 µg/mL).

`O=c1nc(N2CCN(CC3CCCCC3)CC2)sc2c([N+](=O)[O-])cc(C(F)(F)F)cc12` [MACOZINONE] returned an MIC90 in series [1] below 0.035 µM.

In series [1], `CO[C@H]1/C=C/O[C@@]2(C)Oc3c(C)c(O)c4c(O)c(c(/C=N/N5CCN(C)CC5)c(O)c4c3C2=O)NC(=O)/C(C)=C\C=C\[C@H](C)[C@H](O)[C@@H](C)[C@@H](O)[C@@H](C)[C@H](OC(C)=O)[C@@H]1C` [RIFAMPIN] displayed an MIC90 of 0.038 µM (≈ 0.0313 µg/mL).

On to `CCc1nc2ccc(Cl)cn2c1C(=O)NCc1ccc(N2CCC(c3ccc(OC(F)(F)F)cc3)CC2)cc1` [TELACEBEC], for which the MIC90 in series [1] was below 0.035 µM. The compound also displayed a CC50 at 72 h in series [2] above 100 µM.
